From paper PMC8864869, “A short peptide derived from pigment epithelial-derived factor exhibits an angioinhibitory effect” (BMC Ophthalmology, 2022)

Key:
Type in all cases: cell-based, human
HUVECs [1] = assay: Endothelial cell capillary-like tube formation assay; conditions: 20 ng/ml VEGF, 10 μM 7-mer, matrigel, 0.5% FBS, 6 h
Method: (§1) Cells were grown in Medium 200 with LSGS (supplement contains 1.9% fetal bovine serum, 3 ng/ml bFGF, 10 μg/ml heparin, 1 μg/ml hydrocortisone, and 10 ng/ml EGF). Culture plates were coated with 2% gelatin. Cells (passages 4–8) were cultured at 37 °C in a humidified atmosphere of 5% CO2. For peptide treatment, HUVECs were cultured in low serum (0.5% FBS) medium containing 20 ng/ml VEGF and 7-mer peptide (20 μM, unless otherwise specified).
Growth factor-reduced matrigel was pipetted into pre-chilled 24-well plates (150 μl matrigel per well) and polymerized for 45 min at 37 °C. HUVECs (4 × 10^4 per well) in low serum (0.5% FBS) medium were treated with 20 ng/ml VEGF and 7-mer (10 μM) in matrigel coated plates. After 6 h of incubation, tubular structures were photographed. Images were captured using a Cannon camera on a Zeiss inverted microscope with magnification × 40.
The experiment was repeated three times. Magnification is × 40. b The 7-mer induces HUVEC apoptosis in the presence of VEGF. Cell apoptosis was analyzed using the Annexin V-FITC Apoptosis Detection kit according to the in situ staining protocol after treatment for 16 h. Double staining with an annexin V-FITC and the fluorescent dye Hoechst 33342 was used to visualize the apoptotic cells (green) and nuclei (blue), respectively. […] The percentages of apoptotic cells were quantified. ^aP < 0.005 versus VEGF-treated cells

p38 MAPK = assay: Western blot of phosphorylated p38 MAPK in RPMI8226 cells; conditions: 10 ng/ml VEGF + 25 μM 7-mer, time course
Source text: Cell lysis and SDS–PAGE were as described previously. Antibodies used in this study were for active p38 MAPK and active JNK (Promega, Madison, WI), p38 MAPK/SAPK2, JNK (Upstate Biotechnology, Lake Placid, NY), p53 (Chemicon, Temecula, CA), bax, p21, cleaved caspase-3 and β-actin (Abcam Ltd., Cambridge, UK). Proteins of interest were detected using the appropriate IgG-horseradish peroxidase-linked secondary antibody (Santa Cruz Biotechnology) and enhanced chemiluminescence reagent (Amersham, Arlington Heights, IL). X-ray films were scanned on a model GS-700 Imaging Densitometer (Bio-Rad, Hercules, CA) and analyzed with Labworks 4.0 software. For quantification, blots from at least three independent experiments were used.
Fig. 3 The 7-mer induces JNK signaling to trigger RPMI8226 cell apoptosis. […] Antibodies were then stripped and the blots were re-incubated with anti-JNK and anti-p38 MAPK antibodies (lower panels), respectively, to detect the levels of total JNK and p38 MAPK. b Densitometric analyses from three independent experiments are shown. c Cell were pretreated with 10 μM SP600125 or SB203580 for 10 min and then treated as described above for 24 h and apoptosis was quantified using the annexin V-FITC apoptosis detection kit. *P < 0.0001 versus 7-mer-treated cells

RPMI8226 cells = assay: Annexin V-FITC/PI double-staining apoptosis assay in RPMI8226 cells; conditions: 10 ng/ml VEGF + 25 μM peptide, 24 h, serum-free; early + late apoptosis; mean ± SD, three independent experiments
Method: (§2) Cell apoptosis was examined using a TACS annexin V-FITC kit according to the manufacturer’s instructions for in situ staining. The cell numbers were monitored by counterstaining with Hoechst 33342. Afterward, apoptosis was examined and photographed by a Zeiss epifluorescence microscope (× 100, 10 fields/sample). Images were recorded on Zeiss software.
Fig. 2 The 34-mer and 7-mer induce apoptosis of RPMI8226 cells. a Fluorescence microscopy of annexin V-FITC/PI double staining. Treatment of RPMI8226 cells was as described in Fig. 1. Apoptosis was determined by annexin V-FITC staining (green dots) and double stained with propidium iodide (red dots). A representative of three independent experiments is shown. b The percentage of apoptotic cells was quantified by dividing the number of annexin V-positive cells by the total number of cells counted by phase-contrast light microscopy. Control peptide indicates cells were treated with the 5-mer. Histograms show means ± SD. ^aP < 0.005 versus peptide solvent-treated cells. ^bP < 0.0002 versus VEGF-treated cells. ^cP < 0.001 versus 34-mer-treated cells
Fig. 3 The 7-mer induces JNK signaling to trigger RPMI8226 cell apoptosis. 3 × 10^5 cells were serum starved for 24 h and then exposed to 10 ng/ml VEGF and 25 μM 7-mer for the indicated time periods. a Western blotting was performed to detect the active phosphorylated forms of JNK (p-JNK) and p38 MAPK (p-p38), shown in the upper panels. Antibodies were then stripped and the blots were re-incubated with anti-JNK and anti-p38 MAPK antibodies (lower panels), respectively, to detect the levels of total JNK and p38 MAPK. b Densitometric analyses from three independent experiments are shown. c Cell were pretreated with 10 μM SP600125 or SB203580 for 10 min and then treated as described above for 24 h and apoptosis was quantified using the annexin V-FITC apoptosis detection kit. *P < 0.0001 versus 7-mer-treated cells

HUVECs [2] = assay: Annexin V-FITC apoptosis assay in HUVECs; conditions: 20 ng/ml VEGF + peptide (20 μM), 0.5% FBS, 16 h; four independent experiments
Method: as §1, §2
The experiment was repeated three times. Magnification is × 40. b The 7-mer induces HUVEC apoptosis in the presence of VEGF. Cell apoptosis was analyzed using the Annexin V-FITC Apoptosis Detection kit according to the in situ staining protocol after treatment for 16 h. Double staining with an annexin V-FITC and the fluorescent dye Hoechst 33342 was used to visualize the apoptotic cells (green) and nuclei (blue), respectively. A representative result of four independent experiments is shown. The percentages of apoptotic cells were quantified. ^aP < 0.005 versus VEGF-treated cells

7-mer: PEDF Asp64-Ser70, N-acetylated, C-amidated (Ac-DLYRVRS-NH2; UniProt P36955 64-70, looked up, fragment)
VEGF-stimulated tube-like network of HUVECs (HUVECs [1]): marked decrease of the VEGF-stimulated tube-like network | p38 MAPK phosphorylation (p38 MAPK): no significant effect on p38 MAPK phosphorylation | apoptotic (annexin V+) RPMI8226 cells (RPMI8226 cells): 38.6 ± 2.1% | apoptotic HUVECs (annexin V-FITC) (HUVECs [2]): 43.0 ± 5.5%
